Measurements as given in paper PMC4774911, “Biochemical Screening of Five Protein Kinases from Plasmodium falciparum against 14,000 Cell-Active Compounds” (PLoS ONE, 2016).
Where “and” joins values, the source holds several entries; their conditions need not be identical. Equal values may be shown once.

Assays:
Test in all cases: biochemical
Parameters in all cases: endogenous in cells; host or cells: K562 cell extract; species or system K562 (extract); replicate k of n = 2 (each experiment ID is one independent experiment; two experiment IDs per compound)
Conditions in all cases: read-out: KDapp
BMX = BMX (Homo sapiens, UniProt P51813)
Sequence of BMX (P51813 whole entry): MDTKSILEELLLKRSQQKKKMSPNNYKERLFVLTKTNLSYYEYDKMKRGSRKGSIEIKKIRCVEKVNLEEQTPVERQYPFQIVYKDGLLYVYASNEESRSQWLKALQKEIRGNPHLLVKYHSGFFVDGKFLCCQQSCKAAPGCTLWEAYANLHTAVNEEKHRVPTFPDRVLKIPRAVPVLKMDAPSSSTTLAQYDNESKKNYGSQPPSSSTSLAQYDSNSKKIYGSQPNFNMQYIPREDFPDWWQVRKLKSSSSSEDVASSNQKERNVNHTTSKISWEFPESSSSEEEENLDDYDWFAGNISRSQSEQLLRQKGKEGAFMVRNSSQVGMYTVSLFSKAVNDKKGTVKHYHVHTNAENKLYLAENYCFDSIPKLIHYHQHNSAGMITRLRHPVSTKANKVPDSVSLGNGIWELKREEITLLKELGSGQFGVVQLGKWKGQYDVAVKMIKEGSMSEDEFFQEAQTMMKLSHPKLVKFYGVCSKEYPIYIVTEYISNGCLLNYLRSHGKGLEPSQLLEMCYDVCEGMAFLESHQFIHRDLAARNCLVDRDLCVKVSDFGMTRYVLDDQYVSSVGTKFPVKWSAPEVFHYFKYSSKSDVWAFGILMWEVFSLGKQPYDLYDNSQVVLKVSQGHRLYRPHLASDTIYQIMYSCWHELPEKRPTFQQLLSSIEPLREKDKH

PIK3C3 = PIK3C3 (Homo sapiens, UniProt Q8NEB9)
Sequence of PIK3C3 (Q8NEB9 whole entry): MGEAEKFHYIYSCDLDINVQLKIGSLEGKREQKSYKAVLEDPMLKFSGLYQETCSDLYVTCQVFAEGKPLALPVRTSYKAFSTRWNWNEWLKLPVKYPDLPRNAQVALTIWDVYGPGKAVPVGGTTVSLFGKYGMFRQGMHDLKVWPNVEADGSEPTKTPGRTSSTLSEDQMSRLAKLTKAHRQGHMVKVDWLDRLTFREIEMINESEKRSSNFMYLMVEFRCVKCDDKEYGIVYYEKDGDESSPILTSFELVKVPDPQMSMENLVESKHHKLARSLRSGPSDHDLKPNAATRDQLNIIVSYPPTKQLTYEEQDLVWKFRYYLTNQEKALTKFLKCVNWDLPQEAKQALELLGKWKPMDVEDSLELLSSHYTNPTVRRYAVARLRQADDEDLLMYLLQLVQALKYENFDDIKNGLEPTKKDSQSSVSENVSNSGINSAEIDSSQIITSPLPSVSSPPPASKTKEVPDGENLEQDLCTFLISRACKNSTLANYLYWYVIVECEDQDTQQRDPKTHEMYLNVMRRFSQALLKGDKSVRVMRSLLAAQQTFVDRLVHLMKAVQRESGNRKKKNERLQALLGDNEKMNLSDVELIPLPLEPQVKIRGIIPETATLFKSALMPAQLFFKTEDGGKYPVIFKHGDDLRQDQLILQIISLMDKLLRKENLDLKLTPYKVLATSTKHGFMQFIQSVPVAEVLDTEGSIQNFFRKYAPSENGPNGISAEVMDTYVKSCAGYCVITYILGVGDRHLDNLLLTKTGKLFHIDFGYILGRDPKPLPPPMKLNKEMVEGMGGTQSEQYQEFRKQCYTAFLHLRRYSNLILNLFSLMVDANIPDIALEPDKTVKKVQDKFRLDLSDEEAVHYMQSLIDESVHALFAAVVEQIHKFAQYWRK

PIM2 = PIM2 (Homo sapiens, UniProt Q9P1W9)
Sequence of PIM2 (Q9P1W9 whole entry): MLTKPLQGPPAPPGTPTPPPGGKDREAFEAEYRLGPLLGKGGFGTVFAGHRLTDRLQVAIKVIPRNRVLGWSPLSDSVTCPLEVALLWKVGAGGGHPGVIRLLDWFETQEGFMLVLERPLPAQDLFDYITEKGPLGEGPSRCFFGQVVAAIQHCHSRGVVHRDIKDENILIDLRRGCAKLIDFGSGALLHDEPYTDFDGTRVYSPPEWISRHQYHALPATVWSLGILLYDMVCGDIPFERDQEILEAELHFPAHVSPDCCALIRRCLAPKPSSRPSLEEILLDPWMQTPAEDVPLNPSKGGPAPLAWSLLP

STK38L = STK38L (Homo sapiens, UniProt Q9Y2H1)
Sequence of STK38L (Q9Y2H1 whole entry): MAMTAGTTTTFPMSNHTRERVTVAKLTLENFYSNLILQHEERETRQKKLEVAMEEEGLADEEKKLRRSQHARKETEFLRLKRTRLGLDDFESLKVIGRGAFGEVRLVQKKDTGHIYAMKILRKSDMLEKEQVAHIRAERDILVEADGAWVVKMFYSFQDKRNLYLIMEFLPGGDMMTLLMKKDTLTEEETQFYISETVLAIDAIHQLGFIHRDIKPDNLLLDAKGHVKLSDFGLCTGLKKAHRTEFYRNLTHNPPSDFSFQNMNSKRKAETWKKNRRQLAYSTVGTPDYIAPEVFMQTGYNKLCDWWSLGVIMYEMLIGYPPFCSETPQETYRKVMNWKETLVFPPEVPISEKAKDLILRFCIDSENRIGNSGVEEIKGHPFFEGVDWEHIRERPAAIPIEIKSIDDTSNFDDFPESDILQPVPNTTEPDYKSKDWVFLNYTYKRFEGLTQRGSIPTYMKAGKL

TBK1 = biological target: T1, TBK1 (Homo sapiens, UniProt Q9UHD2)
T1 sequence (Q9UHD2 1-729): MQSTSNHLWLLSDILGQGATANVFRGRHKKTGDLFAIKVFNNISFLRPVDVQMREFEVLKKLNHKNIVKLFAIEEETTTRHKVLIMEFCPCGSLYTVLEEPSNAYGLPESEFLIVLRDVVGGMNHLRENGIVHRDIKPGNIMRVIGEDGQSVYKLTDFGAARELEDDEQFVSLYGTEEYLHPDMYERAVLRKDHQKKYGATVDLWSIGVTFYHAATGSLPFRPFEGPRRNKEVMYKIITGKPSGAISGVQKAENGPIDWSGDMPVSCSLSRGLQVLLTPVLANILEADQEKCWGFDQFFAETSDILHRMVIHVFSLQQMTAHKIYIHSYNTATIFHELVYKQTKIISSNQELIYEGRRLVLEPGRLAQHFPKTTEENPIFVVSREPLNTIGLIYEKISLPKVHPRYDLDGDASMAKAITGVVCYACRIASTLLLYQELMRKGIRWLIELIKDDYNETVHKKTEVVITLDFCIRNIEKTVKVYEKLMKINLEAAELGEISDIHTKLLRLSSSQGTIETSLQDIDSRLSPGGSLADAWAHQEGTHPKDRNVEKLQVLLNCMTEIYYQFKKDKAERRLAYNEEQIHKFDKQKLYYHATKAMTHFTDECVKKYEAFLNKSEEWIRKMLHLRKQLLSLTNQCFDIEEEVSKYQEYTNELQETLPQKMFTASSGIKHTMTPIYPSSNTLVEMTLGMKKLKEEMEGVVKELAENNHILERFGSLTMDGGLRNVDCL

TEC = biological target: T2, TEC (Homo sapiens, UniProt P42680)
T2 sequence (P42680 1-631): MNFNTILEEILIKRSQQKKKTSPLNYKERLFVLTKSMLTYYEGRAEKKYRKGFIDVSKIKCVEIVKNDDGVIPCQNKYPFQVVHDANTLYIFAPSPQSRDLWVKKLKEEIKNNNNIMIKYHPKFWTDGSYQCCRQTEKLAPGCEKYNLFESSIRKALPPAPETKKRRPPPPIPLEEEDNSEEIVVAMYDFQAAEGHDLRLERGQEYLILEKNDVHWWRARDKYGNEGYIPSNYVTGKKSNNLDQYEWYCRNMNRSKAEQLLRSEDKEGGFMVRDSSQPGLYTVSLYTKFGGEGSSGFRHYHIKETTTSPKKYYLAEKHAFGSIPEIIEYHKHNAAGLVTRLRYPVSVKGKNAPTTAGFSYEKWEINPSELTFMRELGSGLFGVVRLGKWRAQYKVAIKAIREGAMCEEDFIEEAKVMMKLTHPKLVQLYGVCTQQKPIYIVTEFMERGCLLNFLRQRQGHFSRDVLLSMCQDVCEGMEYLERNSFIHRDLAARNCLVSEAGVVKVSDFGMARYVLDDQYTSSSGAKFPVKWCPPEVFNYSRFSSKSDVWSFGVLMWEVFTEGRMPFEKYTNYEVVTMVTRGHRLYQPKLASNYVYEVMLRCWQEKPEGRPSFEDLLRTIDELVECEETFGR

TNK2 = TNK2 (Homo sapiens, UniProt Q07912)
Sequence of TNK2 (Q07912 whole entry): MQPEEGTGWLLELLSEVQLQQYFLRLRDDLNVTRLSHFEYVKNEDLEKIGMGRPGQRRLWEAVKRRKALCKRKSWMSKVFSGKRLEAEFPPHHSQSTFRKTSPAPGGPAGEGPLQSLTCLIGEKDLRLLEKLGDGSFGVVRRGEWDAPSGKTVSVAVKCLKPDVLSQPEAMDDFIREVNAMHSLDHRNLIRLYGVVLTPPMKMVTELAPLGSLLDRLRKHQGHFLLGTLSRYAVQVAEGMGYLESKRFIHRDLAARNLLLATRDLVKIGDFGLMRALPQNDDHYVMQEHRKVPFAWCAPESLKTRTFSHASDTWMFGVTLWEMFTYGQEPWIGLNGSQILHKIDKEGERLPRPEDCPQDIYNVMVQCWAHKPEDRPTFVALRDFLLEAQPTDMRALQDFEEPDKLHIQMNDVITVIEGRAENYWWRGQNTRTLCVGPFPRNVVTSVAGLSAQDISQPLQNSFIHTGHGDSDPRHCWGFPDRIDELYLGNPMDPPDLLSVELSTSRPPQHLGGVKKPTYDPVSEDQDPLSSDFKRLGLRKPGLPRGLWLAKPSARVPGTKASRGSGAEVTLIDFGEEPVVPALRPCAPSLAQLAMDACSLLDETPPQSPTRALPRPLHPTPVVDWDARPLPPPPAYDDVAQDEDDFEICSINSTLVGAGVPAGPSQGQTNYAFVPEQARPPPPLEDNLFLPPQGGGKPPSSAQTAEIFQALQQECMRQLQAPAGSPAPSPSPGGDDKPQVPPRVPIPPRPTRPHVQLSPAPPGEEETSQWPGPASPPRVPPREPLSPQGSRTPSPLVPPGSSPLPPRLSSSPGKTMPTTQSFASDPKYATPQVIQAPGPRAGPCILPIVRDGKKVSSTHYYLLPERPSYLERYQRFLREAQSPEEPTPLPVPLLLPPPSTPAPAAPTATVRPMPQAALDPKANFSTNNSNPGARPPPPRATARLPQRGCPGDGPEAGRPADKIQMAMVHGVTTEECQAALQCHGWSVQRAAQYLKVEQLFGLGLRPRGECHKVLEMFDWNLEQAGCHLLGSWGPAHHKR

Work on CN1CCN(c2ccc(Nc3ncc(C#N)c(Nc4ccccc4C(N)=O)n3)cc2)CC1.Cl [TCMDC-134116] yielded a Kd (BMX) of 0.285 µM, a Kd (PIK3C3) of 0.957 µM and a Kd (PIM2) of 2.97 µM. The Kd (STK38L) was 0.571 µM, the Kd (TBK1) was 0.229 µM and 0.22 µM and the Kd (TEC) was 0.137 µM and 0.146 µM. The Kd (TNK2) was 0.0735 µM.
